According to US20230391881A1, “COMPOSITIONS AND METHODS FOR OVERCOMING DR5-INDUCED IMMUNE EVASION BY SOLID TUMORS” (University of Virginia Patent Foundation, priority 2020, published 2023):

What was measured:
Format in all cases: in vivo, mouse
[1] = test system: chi-G4S-DR5 stable 4T1 tumors; experiment: Immunoblotting of Chi-G4S-DR5 stable 4T1 tumor lysates (granzyme-b, Foxp3); conditions: size matched tumors, 6 total doses (FIG. 6D)
[2] = test system: chi-G4S-DR5 stable MC38 tumors; experiment: Immunoblotting of Chi-G4S-DR5 stable MC38 tumor lysates (granzyme-b); conditions: size matched tumors, 6 total doses (FIG. 18A)
4T1 tumors = experiment: Tumor regression in 4T1 syngeneic TNBC tumor models; conditions: antibodies i.p., similar dose (FIGS. 6I and 6J)
Experimental: FIGS. 4A-4K. DR5 agonist activated ROCK1 functions to help PD-L1 surface mobilization. (FIGS. 4A and 4B) KMTR2 and lexatumumab treated MDA-MB-436 and OVCAR3 (respectively) lysates for indicated early time points were analyzed for caspase-8, caspase-3, ROCK1, pMLC, PARP, PD-L1 and CMTM6 etc. as indicated. Vertical arrows indicate sequential kinetics of caspase-8, ROCK1, and caspase-3 activation, arrows with “n.s.” below them indicate nonspecific band by ROCK1 antibody. (FIG. 4C) OVCAR3 cells were treated with pMLC activating ionophore A23187 (positive control) and lexatumumab ±ROCK1 inhibitors or ±rDR5 or ±rFOLR1. Lysates were later analyzed for ROCK1, pMLC, caspase-3 and PARP with GAPDH as loading control. (FIG. 4D) MDA-MB-436 and OVCAR3 cells were treated with indicated ROCK1 inhibitors 2 hours prior to DR5 agonist KMTR2 treatment. After 4 hours flow cytometry was used to analyze surface PD-L1. […] Relative luciferase signal was quantified and plotted after subtraction of background signal from untreated cells. […] Tumor volumes were quantified at indicated days by caliper measurements. […] Statistical significance in FIG. 4J was determined by unpaired student t-test and in FIG. 4K using two-tailed […] Wilcoxon Mann-Whitney test. […]
FIGS. 6A-6M. […] CD8/CD45 and CD4/CD45 expressing cells were measured by flow cytometry. […] Harvested tumors homogenized followed by quantitation. […]

## avelumab: clinical anti-PD-L1 antibody (human/mouse cross-reactive); VL and VH SEQ ID NOs: 9 and 10
[1]
  granzyme-b activity in tumors compared to DR5 agonist alone: significantly higher granzyme-b activity
[2]
  granzyme-b activity in tumors compared to DR5 agonist alone: significantly higher granzyme-b activity
4T1 tumors
  tumor regression: only stabilized the tumors
